Measured values: ChEMBL document CHEMBL1146235, “Rationally designed dual inhibitors of HIV reverse transcriptase and integrase” (J Med Chem, 2007)

How the values were obtained:
[1] = tested on: Human immunodeficiency virus 1; experiment: Antiviral activity against HIV1 NL4-3 in human PBMC; format: functional, organism-based; settings: Human immunodeficiency virus 1, NL4.3
[2] = target: Human immunodeficiency virus type 1 integrase (Human immunodeficiency virus 1, UniProt Q7ZJM1); experiment: Inhibition of HIV1 integrase expressed in Escherichia coli BL21 (DE3)
[3] = Cytotoxicity against human PBMC; format: cell-based; settings: PBMC (peripheral blood mononuclear cells)
[4] = Cytotoxicity against CEM-SS cells assessed as cell viability; format: cell-based; settings: human, read-out: Activity
[5] = Theraputc index, ratio of CC50 of PBMC cells to EC50 of HIV1 NL4-3; format: ADME, cell-based; settings: read-out: Ratio CC50/EC50
[6] = target: Human immunodeficiency virus type 1 reverse transcriptase (Human immunodeficiency virus 1, UniProt Q72547); experiment: Inhibition of HIV1 reverse transcriptase
[7] = tested on: Human immunodeficiency virus 1; experiment: Antiviral activity against HIV1 3B in CEM-SS cells by cytoprotection assay; format: functional; set-up: concentration or dose not given beside the values

Human immunodeficiency virus type 1 integrase, sequence (Q7ZJM1 whole entry): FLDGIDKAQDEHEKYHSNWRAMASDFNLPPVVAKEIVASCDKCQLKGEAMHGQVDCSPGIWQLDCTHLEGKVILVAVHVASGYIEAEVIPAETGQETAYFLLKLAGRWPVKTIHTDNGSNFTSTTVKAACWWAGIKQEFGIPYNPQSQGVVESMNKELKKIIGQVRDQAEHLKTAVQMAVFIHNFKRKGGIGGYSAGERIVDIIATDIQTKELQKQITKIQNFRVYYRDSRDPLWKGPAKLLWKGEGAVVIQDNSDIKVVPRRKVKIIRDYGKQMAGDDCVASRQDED

Structure (SMILES)	EC50 [1]	IC50 [2]	IC50 [6]	CC50 [3]	viability [4]	selectivity ratio [5]	Activity [7]
O=C(Nc1ccc2c(O)c(/N=N/c3ccc(C(=O)O)cc3)c(S(=O)(=O)O)cc2c1)Nc1ccc2c(O)c(/N=N/c3ccc(C(=O)O)cc3)c(S(=O)(=O)O)cc2c1		700 nM	390 nM				
O=C(O)/C(O)=C/C(=O)c1cccc(Cc2ccccc2)c1	160 nM		> 100000 nM	> 10000 nM			
O=Cc1ccc(-c2cc(-c3cccc(C=O)c3)c(O)c(O)c(=O)c2O)cc1	3000 nM	1100 nM	1200 nM	6000 nM		2	
O=[N+]([O-])c1ccc(C2c3c(O)nc(S)nc3Oc3nc(S)nc(O)c32)cc1		300 nM	4800 nM	120000 nM		14	

Molecules with a lower IC50 [6], results first:

EC50 [1]	IC50 [2]	IC50 [6]	Structure (SMILES)	CC50 [3]	viability [4]	selectivity ratio [5]	Activity [7]
52 nM	1820 nM	235 nM	CCc1c(Cc2ccccc2)n(COCc2ccc(C(=O)/C=C(\O)C(=O)O)cc2)c(=O)[nH]c1=O	> 10000 nM	91%	> 190	95.2%
33 nM	2410 nM	57 nM	CC(C)c1c(Cc2ccccc2)n(COCc2ccc(C(=O)/C=C(\O)C(=O)O)cc2)c(=O)[nH]c1=O	> 10000 nM	90%	> 310	100%
9.7 nM	4440 nM	24.2 nM	CCc1c(Cc2cc(C)cc(C)c2)n(COCc2ccc(C(=O)/C=C(\O)C(=O)O)cc2)c(=O)[nH]c1=O	> 10000 nM	100%	> 1000	100%
16 nM	> 100000 nM	16 nM	CC(C)c1c(Cc2ccccc2)n(COCc2ccccc2)c(=O)[nH]c1=O	> 10000 nM		> 160	
17 nM	7670 nM	9.2 nM	Cc1cc(C)cc(Cc2c(C(C)C)c(=O)[nH]c(=O)n2COCc2ccc(C(=O)/C=C(\O)C(=O)O)cc2)c1	> 10000 nM	100%	> 600	100%
